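Results reflect a 48-hour exposure of cells in 96-well plates to compound at five concentrations. GI50 marks 50% less growth. The concentration for full growth arrest is given as TGI.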

Among the test systems are HT29 colon; NCI-H522 lung; HL-60(TB) leukemia; SK-MEL-2 melanoma; MDA-MB-435; OVCAR-5 ovarian; SK-MEL-5 melanoma; NCI-H226 lung; 786-0 renal; A549 NSCLC.
Assay in all cases: inhibition of tumour cell growth, NCI panel, 48 h

Turning to `O=C1c2cccc3c([N+](=O)[O-])ccc(c23)C(=O)N1CCCCl`, the GI50 in the assay on HT29 colon was 4.25 µM; in the assay with NCI-H522 lung, 4.34 µM; with HL-60(TB) leukemia, 5.18 µM; in the assay with SK-MEL-2 melanoma, over 10 µM; in the assay with MDA-MB-435, over 10 µM; in the assay on OVCAR-5 ovarian, over 10 µM. In addition, the GI50 with SK-MEL-5 melanoma is over 10000 nM; in the assay on NCI-H226 lung, 2.83 µM; with 786-0 renal, over 10 µM; with A549 NSCLC, over 10 µM. For the same compound, the TGI in the assay with HT29 colon, with NCI-H522 lung, in the assay with HL-60(TB) leukemia, with SK-MEL-2 melanoma, with MDA-MB-435 and in the assay with OVCAR-5 ovarian was over 10 µM throughout. The TGI with SK-MEL-5 melanoma, with NCI-H226 lung, in the assay on 786-0 renal and in the assay on A549 NSCLC was over 10 µM in each case.

For `COc1ccc2c(c1)[n+]([O-])c(/C(C)=N/NC(N)=S)c(C)[n+]2[O-]`, the TGI with HT29 colon, with NCI-H522 lung, with HL-60(TB) leukemia, with SK-MEL-2 melanoma, with MDA-MB-435 and in the assay with OVCAR-5 ovarian was over 100 µM in each case. In addition, the TGI was over 69.1 µM in the assay on SK-MEL-5 melanoma, over 100 µM in the assay with NCI-H226 lung, over 100 µM in the assay with 786-0 renal and over 100 µM with A549 NSCLC.

As for `S=P(C1CCCCC1)(C1CCCCC1)C(c1cccnc1)N1CCCC1` (stereo not given), the TGI with HT29 colon was over 100 µM; with NCI-H522 lung it was 41.2 µM; in the assay on HL-60(TB) leukemia it was 37 µM; in the assay on SK-MEL-2 melanoma, 48.7 µM; in the assay on MDA-MB-435, 33.6 µM; with OVCAR-5 ovarian it was over 100 µM. The TGI with SK-MEL-5 melanoma came to 31.9 µM; in the assay on NCI-H226 lung, 38 µM; in the assay on 786-0 renal, 31.5 µM; in the assay with A549 NSCLC it was 35.4 µM.

For `CS(=O)(=O)c1nccc(-c2c(-c3cccc(OCc4ccccc4)c3)nc3sccn23)n1`, the GI50 in the assay with HT29 colon is over 41.2 µM; in the assay on NCI-H522 lung, 9.12 µM; in the assay with HL-60(TB) leukemia, 3.97 µM; in the assay with SK-MEL-2 melanoma it was over 100 µM; with MDA-MB-435, 13.3 µM; with OVCAR-5 ovarian it was over 100 µM. Further, the GI50 with SK-MEL-5 melanoma is 1390 nM; with NCI-H226 lung it was 12.1 µM; in the assay with 786-0 renal it was 12.9 µM; in the assay on A549 NSCLC it was over 71.1 µM. Also, the TGI in the assay on HT29 colon was over 100 µM; in the assay on NCI-H522 lung, over 100 µM; in the assay on HL-60(TB) leukemia it was 27 µM; in the assay on SK-MEL-2 melanoma it was over 100 µM; in the assay with MDA-MB-435, over 100 µM; in the assay on OVCAR-5 ovarian it was over 100 µM. For the same compound, the TGI in the assay on SK-MEL-5 melanoma is 10 µM; in the assay with NCI-H226 lung, over 100 µM; in the assay on 786-0 renal, over 100 µM; in the assay on A549 NSCLC, over 100 µM.

Regarding `Cc1ccccc1NC(=O)N/C(N)=N/c1nc(C)c(C)s1`, the GI50 with HT29 colon is 0.104 µM; in the assay on NCI-H522 lung it was 0.0478 µM; in the assay on HL-60(TB) leukemia it was 0.235 µM; in the assay with SK-MEL-2 melanoma it was 0.61 µM; with MDA-MB-435, 0.0332 µM; in the assay on OVCAR-5 ovarian, 0.912 µM. Moreover, the GI50 with SK-MEL-5 melanoma is 282 nM; in the assay on NCI-H226 lung it was 2.08 µM; with 786-0 renal it was 0.652 µM; with A549 NSCLC, 0.545 µM. Moreover, the TGI with HT29 colon is over 33 µM; with NCI-H522 lung, over 42.5 µM; in the assay on HL-60(TB) leukemia, over 100 µM; with SK-MEL-2 melanoma, over 100 µM; in the assay with MDA-MB-435, 0.468 µM; in the assay on OVCAR-5 ovarian it was over 100 µM. Further, the TGI with SK-MEL-5 melanoma, in the assay with NCI-H226 lung, in the assay on 786-0 renal and in the assay on A549 NSCLC was over 100 µM in each case.

With `COc1ccc2c3c(ccc2c1)NC(C(=O)O)CC3` (stereo not given), the TGI is over 100 µM with HT29 colon; over 100 µM in the assay with NCI-H522 lung; 82.9 µM in the assay with HL-60(TB) leukemia; over 100 µM with SK-MEL-2 melanoma; over 100 µM in the assay with MDA-MB-435; over 100 µM in the assay on OVCAR-5 ovarian. Also, the TGI was 64.7 µM in the assay with SK-MEL-5 melanoma, over 100 µM in the assay on NCI-H226 lung, over 100 µM with 786-0 renal and over 100 µM in the assay on A549 NSCLC.

As to `C[C@]12CC/C(=N\O)C[C@@H]1CC[C@@H]1[C@@H]2CC[C@]2(C)/C(=N/O)CC[C@@H]12`, the GI50 is 42.7 µM in the assay with HT29 colon; 21 µM with NCI-H522 lung; 23.2 µM in the assay on HL-60(TB) leukemia; 32.9 µM in the assay on SK-MEL-2 melanoma; 24.8 µM in the assay on MDA-MB-435; 46.1 µM in the assay on OVCAR-5 ovarian. Besides, the GI50 with SK-MEL-5 melanoma was 23600 nM; in the assay on 786-0 renal it was 26.7 µM; with A549 NSCLC, 52.7 µM. Also, the TGI in the assay with HT29 colon was over 100 µM; with NCI-H522 lung it was 58.3 µM; in the assay with HL-60(TB) leukemia it was over 100 µM; with SK-MEL-2 melanoma, 97 µM; with MDA-MB-435, 70.8 µM; in the assay on OVCAR-5 ovarian it was over 100 µM. Further, the results for the TGI with SK-MEL-5 melanoma, with 786-0 renal and in the assay on A549 NSCLC were 53.9 µM, 72.3 µM and over 100 µM, respectively.

With `C=CC1CC12C(=O)C1OC2(C)C2C(=O)c3c(O)cccc3C(=O)C12` (stereo not given), the GI50 in the assay with HT29 colon was 33.9 µM; with NCI-H522 lung, 39.8 µM; with HL-60(TB) leukemia it was 18.7 µM; with SK-MEL-2 melanoma, 50 µM; with MDA-MB-435, 21 µM; in the assay on OVCAR-5 ovarian, over 100 µM. The GI50 in the assay on NCI-H226 lung was 45.6 µM; with 786-0 renal, 29.1 µM; in the assay with A549 NSCLC, 70 µM. In addition, the TGI is over 100 µM in the assay with HT29 colon; over 100 µM in the assay on NCI-H522 lung; 46.9 µM in the assay on HL-60(TB) leukemia; over 100 µM with SK-MEL-2 melanoma; 45.1 µM in the assay on MDA-MB-435; over 100 µM with OVCAR-5 ovarian. Besides, the TGI with NCI-H226 lung, in the assay on 786-0 renal and with A549 NSCLC was over 100 µM each time.

As for `COC1=CC(=O)c2c(O)c3c(c(O)c2C1=O)OC1(Oc2c(cc4cc(C)oc(=O)c4c2O)CC1O)C3O` (stereo not given), the TGI is over 100 µM in the assay with HT29 colon; 54.6 µM in the assay with NCI-H522 lung; over 100 µM with HL-60(TB) leukemia; over 100 µM with SK-MEL-2 melanoma; over 100 µM in the assay with MDA-MB-435; over 100 µM in the assay on OVCAR-5 ovarian. Moreover, the TGI in the assay on SK-MEL-5 melanoma is 95 µM; in the assay on 786-0 renal it was over 100 µM; in the assay on A549 NSCLC, over 100 µM.

These data come from PubChem BioAssay (NCI).
